Source: patent US10689362B2, “Quinoxaline compounds as type III receptor tyrosine kinase inhibitors” (Development Center for Biotechnology, priority 2016, dated 2020)

Key:
[1] = molecular target: CSF-1R kinase (Homo sapiens (Human), UniProt P07333); assay: CSF-1R kinase assay (AlphaScreen); assay type: biochemical
Description: Inhibition of CSF-1R kinase activity by a test compound disclosed herein was estimated by AlphaScreen (PerkinElmer). […] Reactions were incubated at 30° C. for 45 min and stopped by adding 5 μL of 50 mM EDTA. Analysis of resulting product using an AlphaScreen kit, and counted with Enspire Alpha (PerkinElmer). […] The IC50 values of quinoxaline compounds of this invention against CSF-1R kinase were determined using the GraphPad Prism 5 software.

[2] = molecular target: c-KIT kinase (Homo sapiens (Human), UniProt P10721); assay: c-KIT kinase assay (radiometric); assay type: biochemical
How it was run: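 Recombinant c-Kit (20 ng) with 2 μg Poly-(Glu4:Tyr1) in MOPS pH 7.0 buffer with MgCl2/MnCl2, 10 μM ATP plus [^33P]-ATP, 4% DMSO final, 60 min at 30° C. Stopped with phosphoric acid, filter-captured and scintillation counted; IC50 from curve fit.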

[3] = molecular target: FLT3 kinase (Homo sapiens (Human), UniProt P36888); assay: FLT3 kinase assay (radiometric); assay type: biochemical; conditions: bound
How it was run: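 Recombinant FLT3 (5 ng) phosphorylating poly(Glu4:Tyr1) (2 μg) with 10 μM ATP plus [^33P]-ATP in MOPS pH 7.0 buffer, 4% DMSO final, 60 min at 30° C. Reaction stopped with phosphoric acid, filter-captured and scintillation-counted; IC50 derived from dose-response.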

[4] = molecular target: PDGFRβ kinase (Homo sapiens (Human), UniProt P09619); assay: PDGFRβ kinase assay (radiometric); assay type: biochemical
How it was run: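 Radiometric assay: recombinant PDGFRβ with poly(Glu4:Tyr1) in MOPS pH 7.0 buffer containing Mg2+/Mn2+, 10 μM ATP plus [33P]-ATP, and compound at 4% DMSO final. Incubated 60 min at 30° C, stopped with phosphoric acid, filter-captured and scintillation-counted. IC50 from curve fitting.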

[5] = system: CSF-1-dependent M-NFS-60 mouse myeloid leukemia cell; assay: M-NFS-60 cell proliferation assay (CellTiter-96); assay type: cell-based; conditions: Cytotoxicity, M-NFS-60 cells, 72 hours
How it was run: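 Growth inhibition was measured as absorbance at 490 nm after 4 h with CellTiter 96 AQueous One reagent. Beforehand, M-NFS-60 cells (2000/well, CSF-1-dependent) were treated with a compound dilution series for 72 h following overnight plating at 37 °C, 5% CO2.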

[6] = system: MV4-11 human acute myeloid leukemia cell with FLT3-ITD mutation; assay: MV4-11 cell proliferation assay (CellTiter-96); assay type: cell-based; conditions: Cytotoxicity, MV4-11 cells, 72 hours
How it was run: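 Growth inhibition read as absorbance at 490 nm after 4 hours with CellTiter96 AQueous One reagent. Before that, FLT3-ITD-dependent MV4-11 cells (6500 cells/well, overnight at 37° C., 5% CO2) received a rising compound concentration series for 72 hours.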

[7] = system: Kasumi-1 human acute myeloid leukemia cell with c-KIT N822K activating mutation; assay: Kasumi-1 cell proliferation assay (CellTiter-96); assay type: cell-based; conditions: Cytotoxicity, Kasumi-1 cells, 72 hours
How it was run: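 After 72 h of treatment with a compound dilution series, growth of c-KIT N822K-driven Kasumi-1 cells (64000 per well, plated the day before) was read as 490 nm absorbance. This followed a 4 h incubation with CellTiter96 AQueous One reagent.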

[8] = system: THP-1 human acute monocytic leukemia cell harboring NRAS G12D mutation; assay: THP-1 cell proliferation assay (counter screen, CellTiter-96); assay type: cell-based; conditions: Cytotoxicity, THP-1 cells (counter screen), 72 hours
How it was run: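 Growth inhibition read as 490 nm absorbance after 4 h with CellTiter96 AQueous One reagent, following 72 h compound exposure at rising concentrations. THP-1 (NRAS G12D) cells plated at 5000 per well and left overnight at 37 °C, 5% CO2 before dosing.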

[9] = system: osteoclast precursors (osteoclast differentiation); assay: Osteoclast tartrate-resistant acid phosphatase assay; assay type: cell-based; conditions: 168 h, at 1 μM treatment, 7 days, RANKL and M-CSF, read-out: inhibition activity against osteoclast differentiation
Description: A serial dilution of test compound was dispensed into a 96-well black clear bottom plate. Compound was diluted by the addition of DMEM media supplemented with 10% characterized fetal bovine serum. Diluted compound was transferred to a 96-well black clear bottom plate. Three thousand osteoclast precursors (Lonza, Walkersville, Md.) were added per well in growth medium containing Receptor Activator of Nuclear Factor Kappa-beta ligand (RANKL) and M-CSF. […] At the end of the incubation period, 50 μL of supernatant from each well was transferred to a clear 96-well plate. Tartrate-resistant acid phosphatase activity in the supernatant samples was determined using an acid phosphatase assay kit (Sigma, St. Louis, Mo.). Absorbance was measured at 550 nm using a plate reader. […] The Inhibition activity against osteoclast differentiation for each compound at 1 μM treatment in duplicate was measured.

c-KIT kinase, sequence (P10721 26-976): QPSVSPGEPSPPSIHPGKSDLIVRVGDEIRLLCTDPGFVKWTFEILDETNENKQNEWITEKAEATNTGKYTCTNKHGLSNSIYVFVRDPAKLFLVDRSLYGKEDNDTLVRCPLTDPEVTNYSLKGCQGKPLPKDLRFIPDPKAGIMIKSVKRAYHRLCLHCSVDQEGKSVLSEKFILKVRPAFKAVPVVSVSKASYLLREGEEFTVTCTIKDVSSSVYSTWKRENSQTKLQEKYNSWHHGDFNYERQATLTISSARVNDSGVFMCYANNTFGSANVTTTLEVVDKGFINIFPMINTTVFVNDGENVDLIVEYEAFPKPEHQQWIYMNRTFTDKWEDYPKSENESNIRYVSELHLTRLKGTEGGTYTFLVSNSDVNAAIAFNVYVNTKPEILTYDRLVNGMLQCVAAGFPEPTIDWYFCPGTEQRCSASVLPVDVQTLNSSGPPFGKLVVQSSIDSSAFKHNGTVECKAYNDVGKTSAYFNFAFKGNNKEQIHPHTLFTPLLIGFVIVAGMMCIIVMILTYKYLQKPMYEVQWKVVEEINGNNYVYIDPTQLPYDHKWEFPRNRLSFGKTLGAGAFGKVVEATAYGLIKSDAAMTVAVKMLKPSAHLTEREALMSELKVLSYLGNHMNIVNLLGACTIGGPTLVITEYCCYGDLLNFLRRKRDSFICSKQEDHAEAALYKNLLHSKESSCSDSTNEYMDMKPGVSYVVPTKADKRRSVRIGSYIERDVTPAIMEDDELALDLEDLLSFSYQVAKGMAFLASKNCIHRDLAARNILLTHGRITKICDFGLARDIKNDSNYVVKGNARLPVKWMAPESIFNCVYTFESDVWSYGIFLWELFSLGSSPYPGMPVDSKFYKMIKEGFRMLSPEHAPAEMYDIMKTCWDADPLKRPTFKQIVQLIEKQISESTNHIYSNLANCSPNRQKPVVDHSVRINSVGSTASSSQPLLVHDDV
PDGFRβ kinase, sequence (P09619 33-1106): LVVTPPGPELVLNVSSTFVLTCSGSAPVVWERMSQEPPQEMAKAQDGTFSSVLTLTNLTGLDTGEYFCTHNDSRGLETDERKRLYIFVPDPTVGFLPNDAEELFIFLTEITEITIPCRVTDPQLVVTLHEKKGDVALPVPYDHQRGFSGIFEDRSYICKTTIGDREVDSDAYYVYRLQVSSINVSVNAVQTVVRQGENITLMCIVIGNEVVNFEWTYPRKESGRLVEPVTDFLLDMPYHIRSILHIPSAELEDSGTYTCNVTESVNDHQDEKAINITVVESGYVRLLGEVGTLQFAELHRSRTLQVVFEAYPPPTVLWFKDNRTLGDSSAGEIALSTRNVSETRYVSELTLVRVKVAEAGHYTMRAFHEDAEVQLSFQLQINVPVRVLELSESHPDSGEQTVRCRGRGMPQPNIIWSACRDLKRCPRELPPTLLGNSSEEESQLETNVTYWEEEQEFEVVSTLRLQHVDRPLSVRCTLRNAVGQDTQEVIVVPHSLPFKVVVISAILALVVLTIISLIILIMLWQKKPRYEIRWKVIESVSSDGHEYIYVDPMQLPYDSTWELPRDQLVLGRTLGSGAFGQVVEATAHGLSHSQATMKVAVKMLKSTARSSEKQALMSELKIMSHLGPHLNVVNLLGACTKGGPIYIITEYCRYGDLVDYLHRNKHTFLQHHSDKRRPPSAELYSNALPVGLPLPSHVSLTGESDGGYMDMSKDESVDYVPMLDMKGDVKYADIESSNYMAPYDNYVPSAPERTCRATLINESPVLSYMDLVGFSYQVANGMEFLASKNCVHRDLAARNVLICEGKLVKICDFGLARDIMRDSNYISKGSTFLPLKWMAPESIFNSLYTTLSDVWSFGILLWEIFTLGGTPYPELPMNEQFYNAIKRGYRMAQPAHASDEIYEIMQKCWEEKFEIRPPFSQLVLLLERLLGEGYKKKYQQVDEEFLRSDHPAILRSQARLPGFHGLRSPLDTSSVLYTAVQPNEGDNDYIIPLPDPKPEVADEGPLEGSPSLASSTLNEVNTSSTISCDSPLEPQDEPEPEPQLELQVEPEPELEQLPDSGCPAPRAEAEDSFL
FLT3 kinase, sequence (P36888 27-993): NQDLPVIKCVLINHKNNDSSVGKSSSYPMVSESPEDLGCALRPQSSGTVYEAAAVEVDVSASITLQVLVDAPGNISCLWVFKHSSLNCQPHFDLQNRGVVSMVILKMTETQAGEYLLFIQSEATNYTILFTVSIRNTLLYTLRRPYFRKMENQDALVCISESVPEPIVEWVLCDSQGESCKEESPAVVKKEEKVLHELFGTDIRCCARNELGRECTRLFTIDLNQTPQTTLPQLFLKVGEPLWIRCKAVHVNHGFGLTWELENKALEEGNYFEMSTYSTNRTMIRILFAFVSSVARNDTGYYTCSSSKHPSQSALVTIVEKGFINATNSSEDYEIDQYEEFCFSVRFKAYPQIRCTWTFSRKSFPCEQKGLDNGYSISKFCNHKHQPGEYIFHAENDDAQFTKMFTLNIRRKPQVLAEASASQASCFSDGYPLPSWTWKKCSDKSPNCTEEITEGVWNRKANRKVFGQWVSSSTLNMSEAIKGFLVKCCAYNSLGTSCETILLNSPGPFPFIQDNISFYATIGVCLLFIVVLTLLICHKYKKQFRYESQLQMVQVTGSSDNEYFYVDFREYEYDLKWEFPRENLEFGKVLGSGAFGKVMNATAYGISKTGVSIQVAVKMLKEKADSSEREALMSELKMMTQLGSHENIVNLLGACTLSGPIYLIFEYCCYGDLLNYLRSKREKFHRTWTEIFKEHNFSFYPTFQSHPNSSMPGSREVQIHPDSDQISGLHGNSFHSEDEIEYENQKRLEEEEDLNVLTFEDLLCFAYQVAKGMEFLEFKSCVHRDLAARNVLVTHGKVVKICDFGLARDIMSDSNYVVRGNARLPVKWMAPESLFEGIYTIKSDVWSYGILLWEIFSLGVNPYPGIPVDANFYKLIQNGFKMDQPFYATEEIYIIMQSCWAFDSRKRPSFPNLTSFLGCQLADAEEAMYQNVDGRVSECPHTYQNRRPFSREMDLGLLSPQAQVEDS
CSF-1R kinase, sequence (P07333 20-972): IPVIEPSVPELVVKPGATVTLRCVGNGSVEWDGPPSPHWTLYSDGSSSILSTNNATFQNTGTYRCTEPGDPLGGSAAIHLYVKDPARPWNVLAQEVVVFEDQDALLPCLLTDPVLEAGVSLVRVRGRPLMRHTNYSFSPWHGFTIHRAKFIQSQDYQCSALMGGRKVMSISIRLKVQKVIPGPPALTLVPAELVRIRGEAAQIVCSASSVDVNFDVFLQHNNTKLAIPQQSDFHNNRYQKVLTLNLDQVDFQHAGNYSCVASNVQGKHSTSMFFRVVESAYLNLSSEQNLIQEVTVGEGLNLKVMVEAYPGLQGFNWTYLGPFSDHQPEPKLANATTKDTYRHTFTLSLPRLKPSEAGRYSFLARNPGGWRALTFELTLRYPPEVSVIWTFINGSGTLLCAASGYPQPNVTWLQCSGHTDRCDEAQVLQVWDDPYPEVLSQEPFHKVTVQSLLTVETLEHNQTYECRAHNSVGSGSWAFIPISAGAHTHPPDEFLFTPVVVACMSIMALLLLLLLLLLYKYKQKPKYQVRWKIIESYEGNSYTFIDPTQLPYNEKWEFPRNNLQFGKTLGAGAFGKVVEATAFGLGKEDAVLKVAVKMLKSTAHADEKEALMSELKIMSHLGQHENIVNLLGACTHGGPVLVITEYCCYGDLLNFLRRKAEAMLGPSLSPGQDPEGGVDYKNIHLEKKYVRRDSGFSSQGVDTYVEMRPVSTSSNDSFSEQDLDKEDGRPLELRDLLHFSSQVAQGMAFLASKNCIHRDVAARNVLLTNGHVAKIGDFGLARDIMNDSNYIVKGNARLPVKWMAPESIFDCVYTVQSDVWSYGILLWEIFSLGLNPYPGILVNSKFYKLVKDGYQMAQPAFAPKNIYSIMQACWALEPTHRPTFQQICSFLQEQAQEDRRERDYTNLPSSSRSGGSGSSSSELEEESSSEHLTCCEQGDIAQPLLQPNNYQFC

SMILES	IC50 ([1]; class symbol) [nM]	IC50 ([2]; class symbol) [nM]	IC50 [3] [nM]	IC50 ([4]; bound) [nM]	IC50 [5] [nM]	IC50 [6] [nM]	IC50 [7] [nM]	IC50 [8] [nM]	inhibition at 1 µM [9] [%]	IC50 ([4]; class symbol) [nM]	IC50 ([2]; bound) [nM]	IC50 ([1]; bound) [nM]
CCCc1ccc(COc2ccc(Nc3ccc4ncc(N5CCOCC5)nc4c3C#N)cc2OC)cn1 [Example 98, 6-((3-methoxy-4-((6-propylpyridin-3-yl)methoxy)phenyl)amino)-3-morpholinoquinoxaline-5-carbonitrile]	< 100	< 100	> 1000	> 1000	< 300	1000 to 10000	< 300	> 10000	> 50	–	–	–
COc1ccc(COc2ccc(Nc3ccc4ncc(N5CCC(N(C)C)CC5)nc4c3C#N)cc2OC)cn1 [Example 82, 3-(4-(dimethylamino)piperidin-1-yl)-6-((3-methoxy-4-((6-methoxy-pyridin-3-yl)methoxy)phenyl)amino)quinoxaline-5-carbonitrile]	< 100	100 to 300	> 1000	> 1000	< 300	1000 to 10000	< 300	1000 to 10000	> 50	–	–	–
COc1ccc(COc2ccc(Nc3ccc4ncc(N5CCOCC5)nc4c3C#N)cc2OC)cc1F [Example 93, 6-((4-((3-fluoro-4-methoxybenzyl)oxy)-3-methoxy-phenyl)amino)-3-morpholinoquinoxaline-5-carbonitrile]	< 100	< 100	> 1000	> 1000	< 300	> 10000	< 300	> 10000	> 50	–	–	–
COc1ccc(COc2ccc(Nc3ccc4ncc(N5CCN(CCOC(C)=O)CC5)nc4c3C#N)cc2OC)cn1 [Example 74, 2-(4-(8-cyano-7-((3-methoxy-4-((6-methoxypyridin-3-yl)methoxy)phenyl)amino)quinoxalin-2-yl)piperazin-1-yl)ethyl acetate]	< 100	< 100	> 1000	> 1000	< 300	1000 to 10000	300 to 1000	> 10000	> 50	–	–	–
COc1cc(Nc2ccc3ncc(C4CCOCC4)nc3c2C#N)ccc1OCc1ccc(C)nc1 [Example 114, 6-((3-methoxy-4-((6-methylpyridin-3-yl)methoxy)phenyl)amino)-3-(tetrahydro-2H-pyran-4-yl)quinoxaline-5-carbonitrile]	< 100	300 to 1000	> 1000	> 1000	1000 to 10000	1000 to 10000	1000 to 10000	> 10000	> 50	–	–	–
COc1ccc(COc2ccc(Nc3ccc4ncc(N5CCN(C)CC5)nc4c3C#N)cc2OC)cc1 [Example 31, 6-((3-methoxy-4-((4-methoxybenzyl)oxy)phenyl)amino)-3-(4-methylpiperazin-1-yl)quinoxaline-5-carbonitrile]	< 100	< 100	> 1000	–	< 300	1000 to 10000	< 300	> 10000	> 50	300 to 1000	–	–
COc1cc(Nc2ccc3ncc(N4CCOCC4)nc3c2C#N)ccc1OCc1cccc(C#N)c1 [Example 65, 6-((4-((3-cyanobenzyl)oxy)-3-methoxyphenyl)amino)-3-morpholinoquinoxaline-5-carbonitrile]	< 100	100 to 300	> 1000	> 1000	< 300	> 10000	> 10000	> 10000	> 50	–	–	–
COc1cc(Nc2ccc3ncc(N4CCOCC4)nc3c2C#N)ccc1OCc1cccc(F)c1 [Example 91, 6-((4-((3-fluorobenzyl)oxy)-3-methoxyphenyl)amino)-3-morpholinoquinoxaline-5-carbonitrile]	< 100	100 to 300	> 1000	> 1000	300 to 1000	1000 to 10000	1000 to 10000	> 10000	> 50	–	–	–
COc1ccc(COc2ccc(Nc3ccc4ncc(N5CCN(C6CC6)CC5)nc4c3C#N)cc2OC)cn1 [Example 118, 3-(4-cyclopropylpiperazin-1-yl)-6-((3-methoxy-4-((6-methoxypyridin-3-yl)methoxy)phenyl)amino)quinoxaline-5-carbonitrile]	< 100	100 to 300	> 1000	> 1000	< 300	> 10000	1000 to 10000	> 10000	> 50	–	–	–
COc1ccc(COc2ccc(Nc3ccc4ncc(N5CCC(N(C)C)CC5)nc4c3C#N)cc2OC)cc1F [Example 85, 3-(4-(dimethylamino)piperidin-1-yl)-6-((4-((3-fluoro-4-methoxy-benzyl)oxy)-3-methoxyphenyl)amino)quinoxaline-5-carbonitrile]	< 100	< 100	> 1000	> 1000	< 300	1000 to 10000	< 300	1000 to 10000	> 50	–	–	–
COc1ccc(COc2ccc(Nc3ccc4ncc(N5CCOCC5)nc4c3C#N)cc2OC)cn1 [Example 50, 6-((3-methoxy-4-((6-methoxypyridin-3-yl)methoxy)phenyl)amino)-3-morpholinoquinoxaline-5-carbonitrile]	< 100	100 to 300	> 1000	> 1000	< 300	> 10000	300 to 1000	> 10000	> 50	–	–	–
COCc1ccc(COc2ccc(Nc3ccc4ncc(N5CCOCC5)nc4c3C#N)cc2OC)nc1 [Example 125, 6-((3-methoxy-4-((5-(methoxymethyl)pyridin-2-yl)methoxy)phenyl)amino)-3-morpholinoquinoxaline-5-carbonitrile]	< 100	< 100	> 1000	> 1000	1000 to 10000	> 10000	< 300	> 10000	> 50	–	–	–
COc1ccc(COc2ccc(Nc3ccc4ncc(N5CCOCC5)nc4c3C#N)cc2Cl)cc1 [Example 63, 6-((3-chloro-4-((4-methoxybenzyl)oxy)phenyl)amino)-3-morpholinoquinoxaline-5-carbonitrile]	< 100	–	> 1000	> 1000	1000 to 10000	> 10000	> 10000	> 10000	–	–	> 1000	–
COc1cc(Nc2ccc3ncc(N4CCOCC4)nc3c2C#N)ccc1OCc1cnccn1 [Example 51, 6-((3-methoxy-4-(pyrazin-2-ylmethoxy)phenyl)amino)-3-morpholinoquinoxaline-5-carbonitrile]	–	< 100	> 1000	> 1000	> 10000	> 10000	300 to 1000	> 10000	–	–	–	> 1000
